The values that follow come from US6699825B2, “Acidic hard-surface antimicrobial cleaner” (S.C. Johnson & Son, Inc., priority 2001, dated 2004).

One data set deals with Klebsiella pneumoniae. Put plainly: EPA Non-Food Contact Sanitizer Test DIS/TSS-10, glass slide, 5% fetal bovine serum. To be noted: K. pneumoniae; dilute aqueous acidic solution; 1-minute contact. The data set is classed as cell-based. Here is the method:
(§1) Low-residue hard surface cleaner formulations of the present invention were evaluated for sanitizing efficacy under the United States Environmental Protection Agency's Non-Food Contact Sanitizer Test, DIS/TSS-10 (Jan. 7, 1982). As noted in specific examples, a 30 second or 1 minute contact time using a glass slide test surface was used. As these formulas are to be used as one-step antimicrobial cleaners, fetal bovine serum was added to the innoculum at a concentration of 5.0 percent by weight to simulate an organic soil load such as one would expect to find on a typical non-food contact surface prior to cleaning.
(§2) Efficacy of the test solutions was evaluated versus Staphylococcus aureus (S. aureus), Klebsiella pneumoniae (K. pneumoniae), and Salmonella choleraesius (S. choleraesius). As a control, parallel tests were conducted using a 0.01 percent solution of Triton X-100 (isooctylphenoxyl-polyethoxyethanol with 9-10 moles of oxyethylene) in an identical manner as the test solutions. The results for the test solutions were compared to the control and are reported as “Log Kill” of the test organism versus the control counts in Table 2. A “Log Kill” of 5 means that 99.999 percent of the organism has been killed.

In the next data set the test system is Staphylococcus aureus. Described as above. The data set is classed as cell-based. The settings on record: S. aureus; dilute aqueous acidic solution; 1-minute contact. Here is the method:
as §1, §2

For data set [1] the following is noted: cited from earlier work.

`CCCCCCOCCOCCO` [DEGHE, Diethylene Glycol n-Hexyl Ether]: the “antimicrobial synergy with low levels of organocarboxylic acids” value (“antimicrobial synergy with low levels” below) in the data set on Klebsiella pneumoniae and with Staphylococcus aureus was “enhanced biocidal efficacy” throughout.
As for `OCCOc1ccccc1` [Eph, Ethylene Glycol Phenyl Ether], the “antimicrobial synergy with low levels” value in the data set on Klebsiella pneumoniae and in the data set with Staphylococcus aureus was “enhanced biocidal efficacy” throughout. For the same compound, the “Solubility in water at 20-25° C.” value in data set [1] is listed as 2.3%.
For `CCCCCOCCO` [EGPE, Ethylene Glycol n-Pentyl Ether], the “antimicrobial synergy with low levels” value with Klebsiella pneumoniae and with Staphylococcus aureus was “enhanced biocidal efficacy” each time. Besides, the “Solubility in water at 20-25° C.” value in data set [1] is reported as 3.4%.
In the case of `CC(C)O` [IPA, Iso-propanol], the “antimicrobial synergy with low levels” value in the data set with Klebsiella pneumoniae and in the data set on Staphylococcus aureus was “no significant antimicrobial synergy” each time. In addition, the miscibility in water result in data set [1] is given as “completely miscible”. Besides, the “Solubility in water at 20-25° C.” value in data set [1] is “Infinite”.
With `COC(C)COC(C)CO` (centres unmarked) [DPM, Dipropylene Glycol Methyl Ether], the “antimicrobial synergy with low levels” value in the data set with Klebsiella pneumoniae and with Staphylococcus aureus was “no significant antimicrobial synergy” in each case. For the same compound, the miscibility in water entry in data set [1] is reported as “completely miscible”. In addition, in data set [1], the “Solubility in water at 20-25° C.” value is on record as “Infinite”.
Turning to `OCc1ccccc1` [BA, Benzyl Alcohol], the “antimicrobial synergy with low levels” value in the data set with Klebsiella pneumoniae and with Staphylococcus aureus was “enhanced biocidal efficacy” in each case. The “Solubility in water at 20-25° C.” value in data set [1] is on record as 3.8%.
On to `CCOCCOCCO` [Carbitol, Diethylene Glycol Ethyl Ether], for which, in the data set with Klebsiella pneumoniae, the “antimicrobial synergy with low levels” value is on record as “no significant antimicrobial synergy”. Moreover, in the data set with Staphylococcus aureus, the “antimicrobial synergy with low levels” value was “no significant antimicrobial synergy”. In data set [1], the miscibility in water entry was “completely miscible” and the “Solubility in water at 20-25° C.” value is recorded as “Infinite”.
